In ChEMBL document CHEMBL5291721, “A preclinical secondary pharmacology resource illuminates target-adverse drug reaction associations of marketed drugs” (Nat Commun, 2023):

Tests used:
[1] = target: T1, Alpha-1A adrenergic receptor (Homo sapiens, UniProt P35348); format: functional, cell-based
T1 sequence (P35348 whole entry): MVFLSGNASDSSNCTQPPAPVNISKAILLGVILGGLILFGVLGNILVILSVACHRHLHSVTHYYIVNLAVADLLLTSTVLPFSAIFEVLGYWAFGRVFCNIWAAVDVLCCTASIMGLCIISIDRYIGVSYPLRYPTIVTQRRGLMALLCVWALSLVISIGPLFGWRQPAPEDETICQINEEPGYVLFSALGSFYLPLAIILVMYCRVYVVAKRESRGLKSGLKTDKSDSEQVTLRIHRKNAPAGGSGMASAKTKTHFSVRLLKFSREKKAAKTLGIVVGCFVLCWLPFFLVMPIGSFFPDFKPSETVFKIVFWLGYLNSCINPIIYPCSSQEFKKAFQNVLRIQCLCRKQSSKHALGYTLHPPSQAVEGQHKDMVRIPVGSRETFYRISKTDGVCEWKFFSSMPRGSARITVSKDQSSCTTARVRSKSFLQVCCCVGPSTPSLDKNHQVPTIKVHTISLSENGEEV

[2] = target: Sodium-dependent serotonin transporter (Homo sapiens, UniProt P31645)
Chain of Sodium-dependent serotonin transporter (P31645 whole entry): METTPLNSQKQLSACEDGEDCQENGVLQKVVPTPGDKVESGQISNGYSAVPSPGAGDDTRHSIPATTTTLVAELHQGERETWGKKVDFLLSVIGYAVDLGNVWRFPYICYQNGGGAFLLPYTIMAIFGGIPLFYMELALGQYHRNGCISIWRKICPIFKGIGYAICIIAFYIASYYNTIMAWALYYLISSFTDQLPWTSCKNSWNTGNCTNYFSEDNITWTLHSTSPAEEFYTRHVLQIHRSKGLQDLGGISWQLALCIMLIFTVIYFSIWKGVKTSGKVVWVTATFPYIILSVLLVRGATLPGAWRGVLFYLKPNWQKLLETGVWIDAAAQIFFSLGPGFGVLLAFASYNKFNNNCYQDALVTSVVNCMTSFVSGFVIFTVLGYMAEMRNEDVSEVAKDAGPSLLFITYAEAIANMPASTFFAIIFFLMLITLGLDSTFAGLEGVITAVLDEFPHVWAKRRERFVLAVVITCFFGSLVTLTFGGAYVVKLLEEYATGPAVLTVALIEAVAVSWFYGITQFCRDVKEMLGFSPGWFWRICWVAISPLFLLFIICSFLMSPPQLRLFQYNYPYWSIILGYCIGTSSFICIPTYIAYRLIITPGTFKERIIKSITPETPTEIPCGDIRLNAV

Estrogen receptor = target: T2, Estrogen receptor (Homo sapiens, UniProt P03372); format: functional
T2 sequence (P03372 whole entry): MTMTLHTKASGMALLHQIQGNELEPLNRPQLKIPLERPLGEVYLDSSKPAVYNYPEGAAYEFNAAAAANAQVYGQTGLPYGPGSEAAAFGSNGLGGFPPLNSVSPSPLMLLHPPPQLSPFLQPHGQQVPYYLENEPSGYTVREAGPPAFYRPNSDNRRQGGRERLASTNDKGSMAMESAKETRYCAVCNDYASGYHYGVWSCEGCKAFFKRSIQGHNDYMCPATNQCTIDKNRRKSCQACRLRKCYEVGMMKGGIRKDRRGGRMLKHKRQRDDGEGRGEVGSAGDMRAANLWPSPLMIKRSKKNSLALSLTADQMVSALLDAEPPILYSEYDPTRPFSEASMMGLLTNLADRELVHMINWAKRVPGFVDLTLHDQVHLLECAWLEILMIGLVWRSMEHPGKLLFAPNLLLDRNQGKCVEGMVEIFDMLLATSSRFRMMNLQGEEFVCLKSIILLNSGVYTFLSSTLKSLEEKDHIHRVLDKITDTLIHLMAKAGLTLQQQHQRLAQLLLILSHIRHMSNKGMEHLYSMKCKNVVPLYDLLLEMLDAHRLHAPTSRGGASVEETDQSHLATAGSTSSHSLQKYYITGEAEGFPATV

Glucocorticoid receptor [3] = target: T3, Glucocorticoid receptor (Homo sapiens, UniProt P04150); format: functional
T3 sequence (P04150 whole entry): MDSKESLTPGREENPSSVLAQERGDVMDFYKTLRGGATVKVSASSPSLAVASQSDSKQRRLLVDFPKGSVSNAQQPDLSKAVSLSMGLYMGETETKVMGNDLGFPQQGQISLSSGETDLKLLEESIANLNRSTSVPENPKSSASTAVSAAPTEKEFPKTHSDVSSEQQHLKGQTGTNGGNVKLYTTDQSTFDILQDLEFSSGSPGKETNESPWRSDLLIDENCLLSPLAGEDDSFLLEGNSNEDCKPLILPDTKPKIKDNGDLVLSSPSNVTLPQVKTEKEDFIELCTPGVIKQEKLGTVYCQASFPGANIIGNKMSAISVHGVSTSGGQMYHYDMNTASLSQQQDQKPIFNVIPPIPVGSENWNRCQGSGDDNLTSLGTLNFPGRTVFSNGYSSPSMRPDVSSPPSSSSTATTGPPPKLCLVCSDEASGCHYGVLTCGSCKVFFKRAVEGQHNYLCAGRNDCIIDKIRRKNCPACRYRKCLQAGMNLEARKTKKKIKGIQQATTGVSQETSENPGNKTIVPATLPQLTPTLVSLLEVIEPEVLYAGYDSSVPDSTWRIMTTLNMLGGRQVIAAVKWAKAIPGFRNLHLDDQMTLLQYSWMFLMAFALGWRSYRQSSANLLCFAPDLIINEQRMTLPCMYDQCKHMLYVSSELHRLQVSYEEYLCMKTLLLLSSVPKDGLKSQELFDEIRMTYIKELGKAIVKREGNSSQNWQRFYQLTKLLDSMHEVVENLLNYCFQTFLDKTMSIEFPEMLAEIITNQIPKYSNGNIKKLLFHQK

Glucocorticoid receptor [4] = target: T3, Glucocorticoid receptor; format: functional; remark: listed apart in the source
[5] = target: T4, Oxysterols receptor LXR-alpha (Homo sapiens, UniProt Q13133); format: functional
T4 sequence (Q13133 whole entry): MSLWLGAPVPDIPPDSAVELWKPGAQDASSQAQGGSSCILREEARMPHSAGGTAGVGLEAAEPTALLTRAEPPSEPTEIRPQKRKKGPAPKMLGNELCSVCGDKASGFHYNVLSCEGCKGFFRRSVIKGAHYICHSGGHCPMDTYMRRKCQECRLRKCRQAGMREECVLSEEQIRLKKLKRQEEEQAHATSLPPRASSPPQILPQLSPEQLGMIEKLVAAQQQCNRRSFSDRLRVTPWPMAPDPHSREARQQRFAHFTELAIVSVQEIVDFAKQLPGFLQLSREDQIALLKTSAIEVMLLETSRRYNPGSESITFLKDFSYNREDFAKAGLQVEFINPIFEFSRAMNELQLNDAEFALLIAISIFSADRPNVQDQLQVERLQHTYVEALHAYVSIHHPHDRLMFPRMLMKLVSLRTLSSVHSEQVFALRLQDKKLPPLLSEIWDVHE

[6] = target: T5, Retinoic acid receptor alpha (Homo sapiens, UniProt P10276); format: functional, cell-based
T5 sequence (P10276 whole entry): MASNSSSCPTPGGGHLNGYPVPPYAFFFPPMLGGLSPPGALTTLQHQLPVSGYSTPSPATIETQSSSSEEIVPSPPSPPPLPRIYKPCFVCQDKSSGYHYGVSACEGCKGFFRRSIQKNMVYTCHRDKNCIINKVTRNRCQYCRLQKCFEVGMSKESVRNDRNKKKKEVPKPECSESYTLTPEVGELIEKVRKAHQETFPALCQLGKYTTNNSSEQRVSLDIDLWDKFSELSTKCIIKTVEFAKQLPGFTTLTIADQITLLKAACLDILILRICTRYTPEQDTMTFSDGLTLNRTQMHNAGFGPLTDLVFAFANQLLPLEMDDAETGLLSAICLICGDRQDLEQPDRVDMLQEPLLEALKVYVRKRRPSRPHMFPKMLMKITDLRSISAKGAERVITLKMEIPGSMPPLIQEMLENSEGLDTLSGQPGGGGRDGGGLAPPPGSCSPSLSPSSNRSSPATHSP
Note: assay procedure not described here.

With Nc1nc2ccc(OC(F)(F)F)cc2s1 [RILUZOLE] the AC50 [1] was greater than 30 µM.
BIVALIRUDIN gave an AC50 [2] greater than 30 µM.
Work on [H]/N=C(/N)c1ccc(NCc2nc3cc(C(=O)N(CCC(=O)O)c4ccccn4)ccc3n2C)cc1 [DABIGATRAN] yielded an AC50 (Estrogen receptor) greater than 30 µM, an AC50 (Glucocorticoid receptor [3]) greater than 30 µM and an AC50 (Glucocorticoid receptor [4]) greater than 30 µM.
CC(C)c1c(C(=O)Nc2ccccc2)c(-c2ccccc2)c(-c2ccc(F)cc2)n1CC[C@@H](O)C[C@@H](O)CC(=O)O [ATORVASTATIN] was tested, and the AC50 [5] was greater than 30 µM and the AC50 [6] was greater than 30 µM.
